# Laboratory results reported in the NIST ThermoML archive (doi:10.1021/je101361u).
# ± gives the expanded uncertainty stated by the source.
# Experiment: xn = mol fraction of the nth substance listed
# Conditions: 101.3 kPa, Liquid, Vibrating tube method
structure (smiles),measurement,setting,value
"COCCOCCOC [2,5,8-trioxanonane] + ClCCCl",mass density,"283.15 K, x2 = 0.0252",958.22 ± 0.25 kg/m3
same,mass density,"283.15 K, x2 = 0.0508",963.01 ± 0.24 kg/m3
same,mass density,"283.15 K, x2 = 0.0751",967.64 ± 0.24 kg/m3
same,mass density,"283.15 K, x2 = 0.1",972.47 ± 0.23 kg/m3
same,mass density,"283.15 K, x2 = 0.1502",982.62 ± 0.22 kg/m3
same,mass density,"283.15 K, x2 = 0.1999",993.12 ± 0.22 kg/m3
same,mass density,"283.15 K, x2 = 0.25",1004.25 ± 0.21 kg/m3
same,mass density,"283.15 K, x2 = 0.3002",1015.91 ± 0.21 kg/m3
same,mass density,"283.15 K, x2 = 0.3501",1028.01 ± 0.21 kg/m3
same,mass density,"283.15 K, x2 = 0.4",1040.79 ± 0.22 kg/m3
same,mass density,"283.15 K, x2 = 0.45",1054.2 ± 0.22 kg/m3
same,mass density,"283.15 K, x2 = 0.5003",1068.49 ± 0.22 kg/m3
same,mass density,"283.15 K, x2 = 0.5499",1083.31 ± 0.23 kg/m3
same,mass density,"283.15 K, x2 = 0.5999",1098.98 ± 0.24 kg/m3
same,mass density,"283.15 K, x2 = 0.6501",1115.77 ± 0.25 kg/m3
same,mass density,"283.15 K, x2 = 0.7",1133.3 ± 0.26 kg/m3
same,mass density,"283.15 K, x2 = 0.75",1151.98 ± 0.27 kg/m3
same,mass density,"283.15 K, x2 = 0.8",1172.08 ± 0.28 kg/m3
same,mass density,"283.15 K, x2 = 0.8499",1193.31 ± 0.3 kg/m3
same,mass density,"283.15 K, x2 = 0.9",1216.25 ± 0.31 kg/m3
same,mass density,"283.15 K, x2 = 0.925",1228.27 ± 0.33 kg/m3
same,mass density,"283.15 K, x2 = 0.9494",1240.66 ± 0.34 kg/m3
same,mass density,"283.15 K, x2 = 0.975",1253.89 ± 0.34 kg/m3
same,mass density,"288.15 K, x2 = 0",948.72 ± 0.23 kg/m3
same,mass density,"288.15 K, x2 = 0.0252",953.25 ± 0.25 kg/m3
same,mass density,"288.15 K, x2 = 0.0508",958.01 ± 0.24 kg/m3
same,mass density,"288.15 K, x2 = 0.0751",962.62 ± 0.24 kg/m3
same,mass density,"288.15 K, x2 = 0.1",967.4 ± 0.23 kg/m3
same,mass density,"288.15 K, x2 = 0.1502",977.49 ± 0.22 kg/m3
same,mass density,"288.15 K, x2 = 0.1999",987.92 ± 0.22 kg/m3
same,mass density,"288.15 K, x2 = 0.25",998.97 ± 0.21 kg/m3
same,mass density,"288.15 K, x2 = 0.3002",1010.56 ± 0.21 kg/m3
same,mass density,"288.15 K, x2 = 0.3501",1022.59 ± 0.21 kg/m3
same,mass density,"288.15 K, x2 = 0.4",1035.28 ± 0.21 kg/m3
same,mass density,"288.15 K, x2 = 0.45",1048.58 ± 0.22 kg/m3
same,mass density,"288.15 K, x2 = 0.5003",1062.78 ± 0.22 kg/m3
same,mass density,"288.15 K, x2 = 0.5499",1077.45 ± 0.23 kg/m3
same,mass density,"288.15 K, x2 = 0.5999",1093.07 ± 0.23 kg/m3
same,mass density,"288.15 K, x2 = 0.6501",1109.73 ± 0.24 kg/m3
same,mass density,"288.15 K, x2 = 0.7",1127.26 ± 0.25 kg/m3
same,mass density,"288.15 K, x2 = 0.75",1145.68 ± 0.27 kg/m3
same,mass density,"288.15 K, x2 = 0.8",1165.61 ± 0.28 kg/m3
same,mass density,"288.15 K, x2 = 0.8499",1186.69 ± 0.3 kg/m3
same,mass density,"288.15 K, x2 = 0.9",1209.44 ± 0.31 kg/m3
same,mass density,"288.15 K, x2 = 0.925",1221.36 ± 0.33 kg/m3
same,mass density,"288.15 K, x2 = 0.9494",1233.66 ± 0.34 kg/m3
same,mass density,"288.15 K, x2 = 0.975",1246.79 ± 0.34 kg/m3
same,mass density,"293.15 K, x2 = 0.0252",948.26 ± 0.25 kg/m3
same,mass density,"293.15 K, x2 = 0.0508",952.99 ± 0.24 kg/m3
same,mass density,"293.15 K, x2 = 0.0751",957.57 ± 0.24 kg/m3
same,mass density,"293.15 K, x2 = 0.1",962.33 ± 0.23 kg/m3
same,mass density,"293.15 K, x2 = 0.1502",972.35 ± 0.22 kg/m3
same,mass density,"293.15 K, x2 = 0.1999",982.7 ± 0.22 kg/m3
same,mass density,"293.15 K, x2 = 0.25",993.69 ± 0.21 kg/m3
same,mass density,"293.15 K, x2 = 0.3002",1005.2 ± 0.21 kg/m3
same,mass density,"293.15 K, x2 = 0.3501",1017.14 ± 0.21 kg/m3
same,mass density,"293.15 K, x2 = 0.4",1029.75 ± 0.21 kg/m3
same,mass density,"293.15 K, x2 = 0.45",1042.96 ± 0.21 kg/m3
same,mass density,"293.15 K, x2 = 0.5003",1057.05 ± 0.22 kg/m3
same,mass density,"293.15 K, x2 = 0.5499",1071.62 ± 0.22 kg/m3
same,mass density,"293.15 K, x2 = 0.5999",1087.13 ± 0.23 kg/m3
same,mass density,"293.15 K, x2 = 0.6501",1103.67 ± 0.24 kg/m3
same,mass density,"293.15 K, x2 = 0.7",1121.07 ± 0.25 kg/m3
same,mass density,"293.15 K, x2 = 0.75",1139.34 ± 0.26 kg/m3
same,mass density,"293.15 K, x2 = 0.8",1159.12 ± 0.28 kg/m3
same,mass density,"293.15 K, x2 = 0.8499",1180.04 ± 0.29 kg/m3
same,mass density,"293.15 K, x2 = 0.9",1202.6 ± 0.31 kg/m3
same,mass density,"293.15 K, x2 = 0.925",1214.42 ± 0.32 kg/m3
same,mass density,"293.15 K, x2 = 0.9494",1226.62 ± 0.33 kg/m3
same,mass density,"293.15 K, x2 = 0.975",1239.64 ± 0.34 kg/m3
same,mass density,"298.15 K, x2 = 0.0252",943.26 ± 0.25 kg/m3
same,mass density,"298.15 K, x2 = 0.0508",947.97 ± 0.24 kg/m3
same,mass density,"298.15 K, x2 = 0.0751",952.52 ± 0.24 kg/m3
same,mass density,"298.15 K, x2 = 0.1",957.24 ± 0.23 kg/m3
same,mass density,"298.15 K, x2 = 0.1502",967.19 ± 0.22 kg/m3
same,mass density,"298.15 K, x2 = 0.1999",977.48 ± 0.22 kg/m3
same,mass density,"298.15 K, x2 = 0.25",988.39 ± 0.21 kg/m3
same,mass density,"298.15 K, x2 = 0.3002",999.83 ± 0.2 kg/m3
same,mass density,"298.15 K, x2 = 0.3501",1011.69 ± 0.2 kg/m3
same,mass density,"298.15 K, x2 = 0.4",1024.2 ± 0.21 kg/m3
same,mass density,"298.15 K, x2 = 0.45",1037.32 ± 0.21 kg/m3
same,mass density,"298.15 K, x2 = 0.5003",1051.31 ± 0.22 kg/m3
same,mass density,"298.15 K, x2 = 0.5499",1065.77 ± 0.22 kg/m3
same,mass density,"298.15 K, x2 = 0.5999",1081.17 ± 0.23 kg/m3
same,mass density,"298.15 K, x2 = 0.6501",1097.58 ± 0.24 kg/m3
same,mass density,"298.15 K, x2 = 0.7",1114.85 ± 0.25 kg/m3
same,mass density,"298.15 K, x2 = 0.75",1132.98 ± 0.26 kg/m3
same,mass density,"298.15 K, x2 = 0.8",1152.61 ± 0.27 kg/m3
same,mass density,"298.15 K, x2 = 0.8499",1173.37 ± 0.29 kg/m3
same,mass density,"298.15 K, x2 = 0.9",1195.74 ± 0.3 kg/m3
same,mass density,"298.15 K, x2 = 0.925",1207.47 ± 0.32 kg/m3
same,mass density,"298.15 K, x2 = 0.9494",1219.57 ± 0.33 kg/m3
same,mass density,"298.15 K, x2 = 0.975",1232.47 ± 0.33 kg/m3
same,mass density,"303.15 K, x2 = 0.0252",938.26 ± 0.25 kg/m3
same,mass density,"303.15 K, x2 = 0.0508",942.93 ± 0.24 kg/m3
same,mass density,"303.15 K, x2 = 0.0751",947.45 ± 0.24 kg/m3
same,mass density,"303.15 K, x2 = 0.1",952.14 ± 0.23 kg/m3
same,mass density,"303.15 K, x2 = 0.1502",962.02 ± 0.22 kg/m3
same,mass density,"303.15 K, x2 = 0.1999",972.24 ± 0.22 kg/m3
same,mass density,"303.15 K, x2 = 0.25",983.08 ± 0.21 kg/m3
same,mass density,"303.15 K, x2 = 0.3002",994.44 ± 0.2 kg/m3
same,mass density,"303.15 K, x2 = 0.3501",1006.21 ± 0.2 kg/m3
same,mass density,"303.15 K, x2 = 0.4",1018.64 ± 0.2 kg/m3
same,mass density,"303.15 K, x2 = 0.45",1031.66 ± 0.21 kg/m3
same,mass density,"303.15 K, x2 = 0.5003",1045.56 ± 0.21 kg/m3
same,mass density,"303.15 K, x2 = 0.5499",1059.91 ± 0.22 kg/m3
same,mass density,"303.15 K, x2 = 0.5999",1075.19 ± 0.23 kg/m3
same,mass density,"303.15 K, x2 = 0.6501",1091.48 ± 0.24 kg/m3
same,mass density,"303.15 K, x2 = 0.7",1108.62 ± 0.24 kg/m3
same,mass density,"303.15 K, x2 = 0.75",1126.61 ± 0.26 kg/m3
same,mass density,"303.15 K, x2 = 0.8",1146.07 ± 0.27 kg/m3
same,mass density,"303.15 K, x2 = 0.8499",1166.67 ± 0.29 kg/m3
same,mass density,"303.15 K, x2 = 0.9",1188.86 ± 0.3 kg/m3
same,mass density,"303.15 K, x2 = 0.925",1200.48 ± 0.32 kg/m3
same,mass density,"303.15 K, x2 = 0.9494",1212.48 ± 0.33 kg/m3
same,mass density,"303.15 K, x2 = 0.975",1225.28 ± 0.33 kg/m3
same,mass density,"308.15 K, x2 = 0.0252",933.23 ± 0.25 kg/m3
same,mass density,"308.15 K, x2 = 0.0508",937.88 ± 0.24 kg/m3
same,mass density,"308.15 K, x2 = 0.0751",942.36 ± 0.24 kg/m3
same,mass density,"308.15 K, x2 = 0.1",947.02 ± 0.23 kg/m3
same,mass density,"308.15 K, x2 = 0.1502",956.85 ± 0.22 kg/m3
same,mass density,"308.15 K, x2 = 0.1999",966.98 ± 0.22 kg/m3
same,mass density,"308.15 K, x2 = 0.25",977.75 ± 0.21 kg/m3
same,mass density,"308.15 K, x2 = 0.3002",989.03 ± 0.2 kg/m3
same,mass density,"308.15 K, x2 = 0.3501",1000.72 ± 0.2 kg/m3
